In brackets after ≈: the same amount, converted by molar mass.
What was measured:
A549 = assay: Cytotoxicity against human A549 cells; assay type: functional, cell-based
P388 = assay: Cytotoxicity against mouse P388 cells; assay type: functional, cell-based
[1] = Induction of cell adhesion in mouse EL-4.IL-2 cells; assay type: functional, cell-based
[2] = molecular target: T1, Protein kinase C alpha type (Homo sapiens, UniProt P17252); assay: Agonist activity at PKCalpha at 50 ug/ml; assay type: functional
[3] = molecular target: T2, Protein kinase C beta type (Homo sapiens, UniProt P05771); assay: Agonist activity at PKCbeta1 at 50 ug/ml; assay type: functional
Target sequence in this assay (P05771 2-671 limits assumed): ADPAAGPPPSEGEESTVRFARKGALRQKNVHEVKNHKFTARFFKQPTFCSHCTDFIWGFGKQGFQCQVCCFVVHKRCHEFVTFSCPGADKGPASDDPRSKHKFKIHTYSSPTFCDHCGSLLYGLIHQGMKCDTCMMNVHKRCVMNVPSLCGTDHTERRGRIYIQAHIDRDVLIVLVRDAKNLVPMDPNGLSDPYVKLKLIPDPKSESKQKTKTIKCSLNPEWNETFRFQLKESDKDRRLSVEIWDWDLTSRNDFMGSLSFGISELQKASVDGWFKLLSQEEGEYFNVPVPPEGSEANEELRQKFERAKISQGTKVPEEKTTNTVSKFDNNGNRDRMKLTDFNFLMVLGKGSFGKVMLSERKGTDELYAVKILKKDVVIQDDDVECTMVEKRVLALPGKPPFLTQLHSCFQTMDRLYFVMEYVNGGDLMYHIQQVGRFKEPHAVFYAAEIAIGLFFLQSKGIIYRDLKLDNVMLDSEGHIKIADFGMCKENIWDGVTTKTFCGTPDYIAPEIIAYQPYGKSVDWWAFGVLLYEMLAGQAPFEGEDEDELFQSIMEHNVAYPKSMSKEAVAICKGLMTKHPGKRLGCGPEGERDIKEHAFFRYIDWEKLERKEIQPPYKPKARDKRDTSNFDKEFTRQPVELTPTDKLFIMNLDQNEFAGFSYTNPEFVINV

[4] = molecular target: T2, Protein kinase C beta type; assay: Agonist activity at PKCbeta2 at 50 ug/ml; assay type: functional
Target sequence in this assay (P05771 2-671 limits assumed): as above

[5] = molecular target: T3, Protein kinase C delta type (Homo sapiens, UniProt Q05655); assay: Agonist activity at PKCdelta at 50 ug/ml; assay type: functional
Target sequence in this assay (Q05655 whole entry, looked up): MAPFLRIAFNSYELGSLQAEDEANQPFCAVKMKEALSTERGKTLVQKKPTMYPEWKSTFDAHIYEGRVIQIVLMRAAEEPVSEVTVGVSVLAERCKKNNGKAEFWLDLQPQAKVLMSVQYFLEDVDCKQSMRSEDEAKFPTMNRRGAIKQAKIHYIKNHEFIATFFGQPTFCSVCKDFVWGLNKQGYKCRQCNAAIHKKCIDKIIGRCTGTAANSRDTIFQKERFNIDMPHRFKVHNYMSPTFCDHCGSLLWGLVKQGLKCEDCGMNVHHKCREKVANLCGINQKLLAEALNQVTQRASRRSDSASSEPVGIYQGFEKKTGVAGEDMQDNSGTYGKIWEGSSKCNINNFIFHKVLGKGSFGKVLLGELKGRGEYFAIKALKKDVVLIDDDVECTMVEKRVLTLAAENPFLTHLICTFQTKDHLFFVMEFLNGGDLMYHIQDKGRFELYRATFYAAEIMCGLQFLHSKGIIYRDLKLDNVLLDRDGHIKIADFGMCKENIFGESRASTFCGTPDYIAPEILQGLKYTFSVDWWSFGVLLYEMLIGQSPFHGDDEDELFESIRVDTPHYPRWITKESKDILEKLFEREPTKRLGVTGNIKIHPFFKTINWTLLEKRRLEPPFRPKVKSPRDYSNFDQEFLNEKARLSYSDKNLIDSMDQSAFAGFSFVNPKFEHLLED

[6] = molecular target: T4, Protein kinase C epsilon type (Homo sapiens) (UniProt Q02156); assay: Agonist activity at PKCepsilon at 50 ug/ml; assay type: functional
T4 sequence (whole entry): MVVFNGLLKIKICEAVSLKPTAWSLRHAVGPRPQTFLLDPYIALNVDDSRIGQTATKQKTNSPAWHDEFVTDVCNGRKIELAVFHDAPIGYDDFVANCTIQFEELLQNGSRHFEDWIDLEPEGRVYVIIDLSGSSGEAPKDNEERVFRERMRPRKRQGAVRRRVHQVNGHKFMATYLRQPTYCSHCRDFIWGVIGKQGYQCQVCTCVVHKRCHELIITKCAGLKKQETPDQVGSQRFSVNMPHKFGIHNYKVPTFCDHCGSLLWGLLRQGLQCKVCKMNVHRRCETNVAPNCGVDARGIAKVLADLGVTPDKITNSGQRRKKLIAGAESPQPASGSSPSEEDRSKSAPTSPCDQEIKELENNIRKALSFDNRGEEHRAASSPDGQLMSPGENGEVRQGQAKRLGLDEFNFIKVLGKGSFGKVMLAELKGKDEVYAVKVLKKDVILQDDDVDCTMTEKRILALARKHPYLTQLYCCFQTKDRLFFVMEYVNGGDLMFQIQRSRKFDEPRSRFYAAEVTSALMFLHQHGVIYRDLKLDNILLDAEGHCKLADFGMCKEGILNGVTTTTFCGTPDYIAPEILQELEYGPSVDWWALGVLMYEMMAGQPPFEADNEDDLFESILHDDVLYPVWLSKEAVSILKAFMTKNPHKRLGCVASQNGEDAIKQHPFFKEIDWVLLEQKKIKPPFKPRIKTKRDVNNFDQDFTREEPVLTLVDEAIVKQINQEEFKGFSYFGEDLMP

[7] = molecular target: Protein kinase C gamma type (Homo sapiens) (UniProt P05129); assay: Agonist activity at PKCgamma at 50 ug/ml; assay type: functional
[8] = Inhibition of cell adhesion in mouse EL-4.IL-2 cells; assay type: functional, cell-based
[9] = molecular target: T1, Protein kinase C alpha type; assay: Inhibition of PKCalpha
[10] = molecular target: T2, Protein kinase C beta type; assay: Inhibition of PKCbeta1
Target sequence in this assay (P05771 whole entry): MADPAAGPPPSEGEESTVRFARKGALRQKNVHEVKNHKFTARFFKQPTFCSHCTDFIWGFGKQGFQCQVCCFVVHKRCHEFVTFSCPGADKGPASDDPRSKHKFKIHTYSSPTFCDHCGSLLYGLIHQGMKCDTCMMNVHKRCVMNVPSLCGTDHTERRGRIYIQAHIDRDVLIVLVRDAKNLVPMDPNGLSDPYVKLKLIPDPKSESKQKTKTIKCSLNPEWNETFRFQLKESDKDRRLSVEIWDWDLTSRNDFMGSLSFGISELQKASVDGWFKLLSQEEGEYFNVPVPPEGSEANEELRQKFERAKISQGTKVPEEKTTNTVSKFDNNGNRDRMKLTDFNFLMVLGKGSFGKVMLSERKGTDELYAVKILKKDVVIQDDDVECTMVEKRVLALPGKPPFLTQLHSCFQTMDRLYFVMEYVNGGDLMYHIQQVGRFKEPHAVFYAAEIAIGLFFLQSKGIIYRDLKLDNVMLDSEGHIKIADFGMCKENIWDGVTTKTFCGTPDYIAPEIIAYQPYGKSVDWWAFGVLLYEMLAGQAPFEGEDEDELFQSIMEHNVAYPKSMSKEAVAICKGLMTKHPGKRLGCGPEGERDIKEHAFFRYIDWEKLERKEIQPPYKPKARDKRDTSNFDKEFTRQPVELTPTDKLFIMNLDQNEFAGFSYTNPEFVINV

[11] = molecular target: T2, Protein kinase C beta type; assay: Inhibition of PKCbeta2
Target sequence in this assay (P05771 whole entry): as above

[12] = molecular target: T3, Protein kinase C delta type; assay: Inhibition of PKCdelta
Target sequence in this assay (Q05655 whole entry): as the sequence (Q05655 whole entry, looked up) above

SMILES: CC(CCCCCCCCc1ccccc1)C[C@]1(C)C[C@]2(C)OC(=O)C[C@@H]2OO1 (some centres undefined) [PLAKORTOLIDE B]
- IC50 (A549): 1.3 µg/mL (≈ 3.23 µM)
- IC50 (P388): 0.4 µg/mL (≈ 0.994 µM)
- IC50 [1]: 4.4 µg/mL (≈ 10.9 µM)
- Activity [2]: -19%
- Activity [3]: -13%
- Activity [4]: -27%
- Activity [5]: -9%
- Activity [6]: -38%
- Activity [7]: -9%

SMILES: CC(CCCCCCc1ccccc1)CC(C)C[C@]1(C)C[C@]2(C)OC(=O)C[C@@H]2OO1 (some centres undefined) [PLAKORTOLIDE D]
- IC50 (A549): 3.8 µg/mL (≈ 9.12 µM)
- IC50 (P388): 0.8 µg/mL (≈ 1.92 µM)
- IC50 [8]: 15.8 µg/mL (≈ 37.9 µM)

SMILES: CCCCCCCCCCCCCCCC[C@@]1(OC)C=C[C@@H](CC(=O)OC)OO1 [CHONDRILLIN]
- IC50 [9]: 87.2 µM
- IC50 [10]: 119 µM
- IC50 [11]: 119 µM
- IC50 [12]: 55.7 µM

SMILES: COC(=O)C[C@@]1(C)C[C@](C)(CC(C)CCCCCCc2ccccc2)OO1 (some centres undefined) [EPIPLAKINIC ACID E METHYL ESTER]
- IC50 (A549): 2 µg/mL (≈ 5.31 µM)
- IC50 (P388): 2.5 µg/mL (≈ 6.64 µM)
- IC50 [8]: 4.6 µg/mL (≈ 12.2 µM)

— ChEMBL document CHEMBL1148071, “New cytotoxic peroxylactones from the marine sponge, Plakinastrella onkodes” (J Nat Prod, 1994)
